Experiment [1] has as its target Serine/threonine-protein kinase PAK 6 (Homo sapiens) (UniProt Q9NQU5). Conditions: at 10 µM.
In experiment [2] the target is 5-hydroxytryptamine receptor 2B (Homo sapiens, UniProt P41595). Put plainly: Selectivity interaction (Serotonin 5HT2B Calcium flux assay, agonist mode ) EUB0000877a HTR2B. A general note: A change in cytosolic calcium serves as a functional read-out for many receptors and channels.
For experiment [3], the target named is T1, Tyrosine-protein kinase JAK3 (Homo sapiens) (UniProt P52333).
T1 sequence (whole entry): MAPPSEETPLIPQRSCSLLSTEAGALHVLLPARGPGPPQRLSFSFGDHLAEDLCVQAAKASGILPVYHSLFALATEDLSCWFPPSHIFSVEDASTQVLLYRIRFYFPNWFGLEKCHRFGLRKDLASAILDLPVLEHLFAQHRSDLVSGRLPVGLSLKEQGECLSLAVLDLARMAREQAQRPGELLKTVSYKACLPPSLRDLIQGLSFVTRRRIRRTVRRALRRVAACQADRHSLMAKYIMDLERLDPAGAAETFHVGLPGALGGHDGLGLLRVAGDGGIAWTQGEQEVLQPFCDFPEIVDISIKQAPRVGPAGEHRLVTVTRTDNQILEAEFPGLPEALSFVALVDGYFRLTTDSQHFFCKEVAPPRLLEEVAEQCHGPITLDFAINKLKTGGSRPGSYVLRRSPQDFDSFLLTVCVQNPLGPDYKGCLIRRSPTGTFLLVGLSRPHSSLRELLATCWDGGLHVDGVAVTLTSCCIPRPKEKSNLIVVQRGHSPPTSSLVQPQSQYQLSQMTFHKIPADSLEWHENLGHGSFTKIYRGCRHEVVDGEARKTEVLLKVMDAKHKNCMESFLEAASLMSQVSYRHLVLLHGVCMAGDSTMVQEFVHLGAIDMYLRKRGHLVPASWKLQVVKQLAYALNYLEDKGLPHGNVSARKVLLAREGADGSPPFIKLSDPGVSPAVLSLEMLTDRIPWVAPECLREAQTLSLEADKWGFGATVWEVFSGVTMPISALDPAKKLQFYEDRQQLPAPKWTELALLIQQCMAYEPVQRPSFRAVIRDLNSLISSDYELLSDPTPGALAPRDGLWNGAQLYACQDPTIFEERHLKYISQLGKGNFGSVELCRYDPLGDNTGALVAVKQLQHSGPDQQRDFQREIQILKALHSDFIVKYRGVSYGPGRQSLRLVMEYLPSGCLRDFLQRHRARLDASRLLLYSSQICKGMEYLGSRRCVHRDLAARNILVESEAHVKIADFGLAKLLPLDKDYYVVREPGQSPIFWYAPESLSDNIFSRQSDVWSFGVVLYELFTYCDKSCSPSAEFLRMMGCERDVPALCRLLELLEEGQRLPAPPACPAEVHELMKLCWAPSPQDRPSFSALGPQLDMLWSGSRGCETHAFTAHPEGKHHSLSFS
Particulars: at 10 µM.

The target of experiment [4] is T2, cGMP-dependent protein kinase 1 (Homo sapiens) (UniProt Q13976).
T2 sequence (whole entry): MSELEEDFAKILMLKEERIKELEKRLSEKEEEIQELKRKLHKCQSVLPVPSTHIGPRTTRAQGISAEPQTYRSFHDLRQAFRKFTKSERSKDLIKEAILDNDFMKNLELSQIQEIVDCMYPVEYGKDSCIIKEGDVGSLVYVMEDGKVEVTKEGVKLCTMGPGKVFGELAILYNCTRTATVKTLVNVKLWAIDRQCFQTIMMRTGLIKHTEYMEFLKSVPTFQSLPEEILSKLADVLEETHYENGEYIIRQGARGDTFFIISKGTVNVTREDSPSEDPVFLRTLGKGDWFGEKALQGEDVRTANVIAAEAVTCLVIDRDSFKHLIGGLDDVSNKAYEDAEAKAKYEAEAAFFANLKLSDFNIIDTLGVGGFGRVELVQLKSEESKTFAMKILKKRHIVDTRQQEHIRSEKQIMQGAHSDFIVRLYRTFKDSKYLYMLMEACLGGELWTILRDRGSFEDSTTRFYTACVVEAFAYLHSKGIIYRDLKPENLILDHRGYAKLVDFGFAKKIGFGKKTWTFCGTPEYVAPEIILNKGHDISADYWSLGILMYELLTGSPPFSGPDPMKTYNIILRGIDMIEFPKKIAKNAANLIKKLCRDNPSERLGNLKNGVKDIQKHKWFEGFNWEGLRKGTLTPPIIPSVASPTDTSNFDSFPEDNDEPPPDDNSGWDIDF
The experiment is described as follows: Selectivity interaction (KinomeScan (DiscoverX)) EUB0000695a PRKG1. Particulars: at 100 nM.

For experiment [5], the target named is Vascular endothelial growth factor receptor 2 (Homo sapiens, UniProt P35968). Put plainly: Selectivity interaction (ProQinase) EUB0000171b KDR.
Vascular endothelial growth factor receptor 2, sequence (P35968 whole entry): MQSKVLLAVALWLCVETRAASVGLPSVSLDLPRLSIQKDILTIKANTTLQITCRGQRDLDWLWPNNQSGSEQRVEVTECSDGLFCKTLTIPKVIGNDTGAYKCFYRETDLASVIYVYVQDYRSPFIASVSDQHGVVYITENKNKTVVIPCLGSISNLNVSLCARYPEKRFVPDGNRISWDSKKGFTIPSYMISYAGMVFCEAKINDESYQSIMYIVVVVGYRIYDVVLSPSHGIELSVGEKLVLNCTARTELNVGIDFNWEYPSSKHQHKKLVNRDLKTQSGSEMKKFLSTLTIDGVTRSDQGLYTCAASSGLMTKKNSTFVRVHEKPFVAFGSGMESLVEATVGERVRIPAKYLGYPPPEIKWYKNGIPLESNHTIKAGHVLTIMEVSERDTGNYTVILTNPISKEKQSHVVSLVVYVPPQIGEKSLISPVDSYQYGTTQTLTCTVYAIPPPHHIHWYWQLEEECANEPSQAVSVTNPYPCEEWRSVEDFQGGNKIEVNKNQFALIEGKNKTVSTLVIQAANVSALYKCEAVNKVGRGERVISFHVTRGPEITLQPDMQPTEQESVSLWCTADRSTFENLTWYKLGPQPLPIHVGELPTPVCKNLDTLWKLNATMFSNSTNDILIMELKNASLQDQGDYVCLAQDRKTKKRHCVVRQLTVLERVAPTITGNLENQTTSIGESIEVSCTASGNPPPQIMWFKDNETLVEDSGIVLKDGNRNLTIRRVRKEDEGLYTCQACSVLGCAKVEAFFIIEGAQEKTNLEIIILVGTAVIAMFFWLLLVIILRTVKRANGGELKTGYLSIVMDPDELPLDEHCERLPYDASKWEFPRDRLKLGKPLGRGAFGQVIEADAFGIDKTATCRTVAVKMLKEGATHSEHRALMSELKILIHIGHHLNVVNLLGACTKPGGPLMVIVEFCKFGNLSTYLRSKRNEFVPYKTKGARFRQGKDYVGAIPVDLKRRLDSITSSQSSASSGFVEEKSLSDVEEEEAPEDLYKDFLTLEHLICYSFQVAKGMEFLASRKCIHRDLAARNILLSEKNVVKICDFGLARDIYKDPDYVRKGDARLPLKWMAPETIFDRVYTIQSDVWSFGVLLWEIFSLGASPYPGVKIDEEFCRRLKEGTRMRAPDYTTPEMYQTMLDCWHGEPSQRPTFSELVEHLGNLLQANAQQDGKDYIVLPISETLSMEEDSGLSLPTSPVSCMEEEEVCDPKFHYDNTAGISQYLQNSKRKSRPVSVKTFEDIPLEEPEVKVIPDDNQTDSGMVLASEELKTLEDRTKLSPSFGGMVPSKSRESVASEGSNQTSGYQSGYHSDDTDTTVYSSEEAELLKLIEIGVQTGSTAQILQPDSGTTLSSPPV
The target of experiment [6] is T3, Dual specificity mitogen-activated protein kinase kinase 6 (Homo sapiens) (UniProt P52564).
T3 sequence (whole entry): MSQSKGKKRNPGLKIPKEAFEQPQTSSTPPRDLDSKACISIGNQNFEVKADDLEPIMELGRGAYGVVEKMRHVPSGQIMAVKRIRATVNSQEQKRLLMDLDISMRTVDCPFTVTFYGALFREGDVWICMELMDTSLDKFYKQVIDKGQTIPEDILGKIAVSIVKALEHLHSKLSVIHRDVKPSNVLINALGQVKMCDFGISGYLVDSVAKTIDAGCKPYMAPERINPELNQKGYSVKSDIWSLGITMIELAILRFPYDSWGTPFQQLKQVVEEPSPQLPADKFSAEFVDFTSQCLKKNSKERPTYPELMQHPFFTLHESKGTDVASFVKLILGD
The experiment is described as follows: Selectivity interaction (ProQinase) EUB0000171b MAP2K6.

The target in experiment [7] is Activin receptor type-1-like (Homo sapiens) (UniProt P37023). Put plainly: Selectivity interaction (KinomeScan (DiscoverX)) EUB0000045b ACVRL1.
Activin receptor type-1-like (Homo sapiens), sequence (P37023 whole entry): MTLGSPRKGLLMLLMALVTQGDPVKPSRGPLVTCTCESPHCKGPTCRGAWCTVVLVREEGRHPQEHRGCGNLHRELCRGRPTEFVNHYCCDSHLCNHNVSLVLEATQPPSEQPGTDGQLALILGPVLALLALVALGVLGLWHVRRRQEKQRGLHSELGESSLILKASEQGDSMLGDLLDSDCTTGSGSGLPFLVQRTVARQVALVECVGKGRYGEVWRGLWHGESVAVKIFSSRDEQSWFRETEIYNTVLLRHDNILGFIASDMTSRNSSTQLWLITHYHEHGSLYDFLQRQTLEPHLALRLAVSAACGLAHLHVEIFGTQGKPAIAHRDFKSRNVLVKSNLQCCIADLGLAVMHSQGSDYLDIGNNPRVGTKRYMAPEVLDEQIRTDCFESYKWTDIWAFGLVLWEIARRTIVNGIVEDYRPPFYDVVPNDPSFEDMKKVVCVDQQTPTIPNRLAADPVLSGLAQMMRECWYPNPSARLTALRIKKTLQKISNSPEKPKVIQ
The target in experiment [8] is T4, Interleukin-1 receptor-associated kinase 4 (Homo sapiens) (UniProt Q9NWZ3).
T4 sequence (whole entry): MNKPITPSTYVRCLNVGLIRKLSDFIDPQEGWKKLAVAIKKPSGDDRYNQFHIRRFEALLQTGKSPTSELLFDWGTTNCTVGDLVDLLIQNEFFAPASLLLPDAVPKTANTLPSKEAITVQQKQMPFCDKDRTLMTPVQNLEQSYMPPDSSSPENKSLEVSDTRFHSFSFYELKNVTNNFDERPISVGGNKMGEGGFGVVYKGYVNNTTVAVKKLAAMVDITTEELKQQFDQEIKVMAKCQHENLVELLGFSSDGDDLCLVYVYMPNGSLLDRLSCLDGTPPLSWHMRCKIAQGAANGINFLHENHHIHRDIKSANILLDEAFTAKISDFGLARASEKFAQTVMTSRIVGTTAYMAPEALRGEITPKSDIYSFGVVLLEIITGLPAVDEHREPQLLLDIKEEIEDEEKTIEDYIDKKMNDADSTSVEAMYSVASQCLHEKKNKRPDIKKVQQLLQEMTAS
The experiment is described as follows: Selectivity interaction (KinomeScan (DiscoverX)) EUB0000045b IRAK4.

Here are results for six compounds from ChEMBL document CHEMBL5465560, “Selectivity Literature for EUbOPEN Chemogenomic Library” (2024).

Where only a bound is given, the exact number is not on record here.

5-hydroxytryptamine receptor 2B, sequence (P41595 whole entry): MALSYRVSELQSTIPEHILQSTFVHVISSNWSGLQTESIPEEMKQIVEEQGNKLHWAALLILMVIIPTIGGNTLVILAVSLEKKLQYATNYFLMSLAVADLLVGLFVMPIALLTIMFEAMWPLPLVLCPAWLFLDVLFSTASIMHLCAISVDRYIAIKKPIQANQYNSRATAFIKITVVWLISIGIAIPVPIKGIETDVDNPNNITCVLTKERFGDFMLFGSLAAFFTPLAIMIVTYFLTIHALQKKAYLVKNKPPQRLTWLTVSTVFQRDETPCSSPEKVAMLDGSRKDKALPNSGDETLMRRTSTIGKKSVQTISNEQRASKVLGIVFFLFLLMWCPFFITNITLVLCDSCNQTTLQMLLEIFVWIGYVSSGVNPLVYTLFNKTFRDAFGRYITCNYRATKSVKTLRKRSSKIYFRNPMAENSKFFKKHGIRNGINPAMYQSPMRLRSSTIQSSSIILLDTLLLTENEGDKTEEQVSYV
Serine/threonine-protein kinase PAK 6 (Homo sapiens), sequence (Q9NQU5 whole entry, looked up): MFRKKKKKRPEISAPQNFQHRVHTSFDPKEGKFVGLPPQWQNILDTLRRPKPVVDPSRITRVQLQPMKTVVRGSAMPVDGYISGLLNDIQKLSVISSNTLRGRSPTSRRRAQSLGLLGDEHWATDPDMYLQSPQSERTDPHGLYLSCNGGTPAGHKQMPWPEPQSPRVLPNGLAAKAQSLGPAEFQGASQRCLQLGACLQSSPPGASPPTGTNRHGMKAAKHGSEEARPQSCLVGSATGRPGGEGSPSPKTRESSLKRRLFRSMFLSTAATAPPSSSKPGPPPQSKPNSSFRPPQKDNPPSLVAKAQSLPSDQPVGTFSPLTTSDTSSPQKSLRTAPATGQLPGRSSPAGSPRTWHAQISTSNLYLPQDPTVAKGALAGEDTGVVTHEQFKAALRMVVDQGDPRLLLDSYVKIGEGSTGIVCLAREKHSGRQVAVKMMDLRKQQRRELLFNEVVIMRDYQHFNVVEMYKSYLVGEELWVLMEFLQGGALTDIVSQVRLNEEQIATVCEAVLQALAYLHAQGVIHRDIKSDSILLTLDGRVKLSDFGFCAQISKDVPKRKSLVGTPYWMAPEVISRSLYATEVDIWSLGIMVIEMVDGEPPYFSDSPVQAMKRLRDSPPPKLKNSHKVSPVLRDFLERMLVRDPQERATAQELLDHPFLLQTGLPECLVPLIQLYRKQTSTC

Consider `Cc1cc([C@@H](C)Nc2ccccc2C(=O)O)c2nc(N3CCOCC3)cc(=O)n2c1` [AZD-6482], for which the % of control in experiment [1] was 93%.
On to `CCC(=O)N1CC[C@H](Nc2ncnc3c2CN(c2cnc(OC)c(C(F)(F)F)c2)CC3)C1` [LENIOLISIB], for which the IC50 in experiment [2] is above 30 µM.
With `CCN(CC)CCCCNc1ncc2cc(-c3cc(OC)cc(OC)c3)c(NC(=O)NC(C)(C)C)nc2n1`, the % of control in experiment [3] was found to be 100%.
Turning to `Cc1cc(F)c(C(=O)Nc2cccc(-c3nncn3C(C)C)n2)cc1-n1cnc(C2CC2)c1`, the % of control in experiment [4] was 100%.
For the compound `C=CC(=O)Nc1cccc(C(=O)Nc2ccc(Nc3cc(-c4[nH]c(SC)nc4C)ccn3)cc2)c1`, the % of control was found to be 78% in experiment [5] (at 1 µM), 50% in experiment [5] (at 5 µM), 103% in experiment [6] (at 1 µM) and 126% in experiment [6] (at 5 µM).
Turning to `C=CC(=O)Nc1cc(-n2c(=O)ccc3cnc4ccc(-c5ccc(NS(C)(=O)=O)cc5)cc4c32)ccc1C`, the % of control in experiment [7] (at 1 µM) turned out to be 100%; in experiment [7] (at 10 µM), 75%; in experiment [8] (at 1 µM), 84%; in experiment [8] (at 10 µM), 100%.

In general, IC50 refers to the concentration that inhibits the measured activity by half.
